Earlier results on one compound are cited in article PMC4310350 (Drug Design, Development and Therapy, 2015).

Read-outs that look alike come from different tables or passages of the source.

For series [1] the following is noted: 3-hour incubation in human plasma; cited from earlier work.
In series [2] the test system is colitis induced by trinitrobenzene sulfonic acid. The conditions noted are these: mice, cited from earlier work.
For series [3] the following is noted: human liver microsomes in the presence of NADPH; cited from earlier work. (Liver microsomes are a subcellular fraction often used to study metabolism.)

For `O=C(O[C@H]1[C@@H]2C=CO[C@@H](O[C@@H]3O[C@H](CO)[C@@H](O)[C@H](O)[C@H]3O)[C@@H]2[C@@]2(CO)O[C@@H]12)c1ccc(O)cc1` [catalposide], the Stability entry in series [1] and in series [3] was “remained stable” in each case. Further, the Histologic toxicity entry in series [2] (1–2.5 mg/kg) is reported as “without histologic toxicity”. In series [2] (dose 0.5 mg/kg), the Severity of colitis entry is “reduced the severity of colitis”.
